Tests used:
[1] = biological target: tankyrase 2 protein PARP domain, TNKS2P (GST-tagged) (Homo sapiens (Human), UniProt Q9H2K2); experiment: TNKS2 autoparsylation (AP) biochemical assay, LC/MS detection of nicotinamide; settings: 20 nM enzyme, 250 μM NAD+, 60 min room temperature
[2] = tested on: Wnt ligand-induced signaling; experiment: Wnt-responsive Super-TOpFlash (STF) luciferase reporter gene assay in HEK293 cells; type: cell-based; settings: Homo sapiens, Wnt3A condition medium induced
Protocol: Compound activity in inhibiting Wnt ligand-induced signaling was measured using a Wnt-responsive Super-TOpFlash (STF) luciferase reporter gene assay in HEK293 cells. On day 1 of the assay, cells were plated at a density of 8000 cells per well of 384-well plate in 25 μl medium containing 5% fetal bovine serum (FBS). On the second day, […] condition medium (CM) produced from mouse L cells was added to the cells to induce Wnt signaling, followed by addition of 5 μL of compounds each well in 10-point serial dilution. On the third day, the luciferase activity was measured by the Bright-Glo™ Luciferase Assay System following manufacture's protocol (Promega, E2620). The Inhibition was calculated as: (Maximum Wnt-induced signaling−Sample)/(Maximum Wnt-induced signaling−Background)*100. “Maximum Wnt-induced signaling” is the STF signal level induced by 20% Wnt3A CM without compound; and “Background” is the STF signal level without the addition of Wnt3A CM or compound.

PARP2 = PARP2 (Mus musculus (Mouse), UniProt O88554); experiment: PARP2 autoparsylation biochemical assay, LC/MS detection of nicotinamide; settings: read-out: PARP2 Ic50, 20 nM enzyme, 250 μM NAD+, 60 min room temperature
PARP2, sequence (O88554 whole entry, the tested form may be a part): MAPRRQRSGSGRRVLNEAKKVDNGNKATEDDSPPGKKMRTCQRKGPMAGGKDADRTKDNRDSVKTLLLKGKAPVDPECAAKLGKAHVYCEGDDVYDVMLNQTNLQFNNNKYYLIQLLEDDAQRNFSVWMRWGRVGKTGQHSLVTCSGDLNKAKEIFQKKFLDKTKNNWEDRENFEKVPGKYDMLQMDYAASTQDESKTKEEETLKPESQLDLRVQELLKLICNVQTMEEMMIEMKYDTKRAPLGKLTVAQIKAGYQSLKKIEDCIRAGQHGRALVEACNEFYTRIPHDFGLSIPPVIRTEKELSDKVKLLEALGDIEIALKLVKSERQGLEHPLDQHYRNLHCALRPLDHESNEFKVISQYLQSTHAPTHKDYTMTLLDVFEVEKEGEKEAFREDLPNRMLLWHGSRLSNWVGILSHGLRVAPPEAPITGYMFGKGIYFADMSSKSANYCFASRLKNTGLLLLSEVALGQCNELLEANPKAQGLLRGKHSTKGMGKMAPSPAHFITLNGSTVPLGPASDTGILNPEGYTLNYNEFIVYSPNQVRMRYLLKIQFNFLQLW

[3] = biological target: human tankyrase 1 PARP catalytic domain, TNKS1P (GST-tagged) (Homo sapiens (Human), UniProt O95271); experiment: TNKS1 autoparsylation (AP) biochemical assay, LC/MS detection of nicotinamide; settings: 20 nM enzyme, 250 μM NAD+, 60 min room temperature
human tankyrase 1 PARP catalytic domain, TNKS1P (GST-tagged), sequence (O95271 1112-1317): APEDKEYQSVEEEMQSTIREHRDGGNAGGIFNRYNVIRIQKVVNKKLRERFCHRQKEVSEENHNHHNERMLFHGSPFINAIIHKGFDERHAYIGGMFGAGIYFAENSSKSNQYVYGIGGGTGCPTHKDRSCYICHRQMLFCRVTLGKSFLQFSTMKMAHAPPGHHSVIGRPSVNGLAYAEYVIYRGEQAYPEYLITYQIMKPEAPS
Protocol: The human tankyrase 1 PARP catalytic domain, TNKS1P, was cloned into a pDONR221 vector using the Invitrogen Gateway Technology. This entry clone was then subcloned into the destination vector pDEST20 to obtain the N-terminal Glutathione S-transferase (GST)-tagged fusion protein.
The autoparsylation activity of the TNKS 1/2 or PARP1/2 enzymes was measured by the liquid chromatography-mass spectrometry (LC/MS) detection of nicotinamide as readout. Compound activity in inhibiting the TNKS and PARP autoparsylation was evaluated by IC50 measurements.

Axin2 protein = experiment: Cellular ELISA assay for stabilizing the Axin2 protein in SW480 cells; type: cell-based; settings: Homo sapiens, 24 hrs treatment, read-out: Axin AC50
Protocol: Compound activity in stabilizing the Axin2 protein was measured by Sandwich Enzyme-Linked Immuosorbent (ELISA) assay in the colorectal cell line SW480. 30,000 SW480 cells were seeded per well in 96-well plate and incubated overnight prior to compound treatment. Cells were then treated with compounds in 6-point dilution starting at 10 μM for 24 hrs. Cells were then washed with 100 μL of cold Phosphate Buffer Saline (PBS), and lysed in 125 μl of cold 1× lysis buffer (Cell Signaling Technology, 9803) supplemented with Protease inhibitor (Roche, 11836170) and Phosphatase inhibitors (Sigma, P2850, P5726). For the ELISA assay, anti Axin-2 capture antibody (Strategic Diagnostics) antibody was diluted to a concentration of 1 μg/ml (1:1000) in Carbonate Coating buffer, pH 9.2 (Sigma, C3041-50CAP). 100μ of the diluted anti Axin-2 capture antibody per well was then used to coat the 96-well ELISA plate (Thermo Electron Corp., MicroLite 1 flat bottom plate #7571) overnight at 4° C. Plates were then washed three times with 300 μl/well of wash solution, PBST20 (PBS+0.05% Tween), and blocked with 300 μl/well 1% BSA/PBS (BSA, Millipore Probumin #82-045-1) for 1.5 hours at room temperature while shaking gently. After blocking, plates were then washed three times with 300 μl/well of wash solution. 100 μL of prepared SW480 cell lysate was then added to each well and incubated at room temperature for 2 hours while shaking gently. After washing, 100 μL of Biotinylated anti-Axin2 antibody (CST, 2151) was added to each well and incubated room temperature for 2 hours. 100 μL of Streptavidin-HRP (R&D systems, DY998) diluted 1:200 in 1% BSA/PBS was then added in each well and incubate for 30 mins at R/T in the dark. Signal was detected by Chemiluminescence (Pierce SuperSignal ELISA Femto #3704), and measured on PerkinElmer Wallac 1420 plate reader.

[4] = tested on: Non-small lung cancer ABC-1 cells; experiment: Cellular proliferation assay, ABC-1 cells (CellTiter-Glo); type: cell-based; settings: Homo sapiens, 72 h, 3 days of compound treatment
Protocol: Non-small lung cancer ABC-1 cells were plated at 5000 cells per well in 96-well plates and treated with 8 serial compound dilutions starting from 10 μM as the highest concentration. Viable cells were measured after 3 days of compound treatment using the CellTiter-Glo assay (Promega, G7570). Assay was performed following the manufacture protocol.

Human PARP1 = Human PARP1 (Homo sapiens (Human), UniProt P09874); experiment: PARP1 autoparsylation biochemical assay, LC/MS detection of nicotinamide; settings: read-out: PARP1 IC50, 20 nM enzyme, 250 μM NAD+, 60 min room temperature
Human PARP1, sequence (P09874 whole entry): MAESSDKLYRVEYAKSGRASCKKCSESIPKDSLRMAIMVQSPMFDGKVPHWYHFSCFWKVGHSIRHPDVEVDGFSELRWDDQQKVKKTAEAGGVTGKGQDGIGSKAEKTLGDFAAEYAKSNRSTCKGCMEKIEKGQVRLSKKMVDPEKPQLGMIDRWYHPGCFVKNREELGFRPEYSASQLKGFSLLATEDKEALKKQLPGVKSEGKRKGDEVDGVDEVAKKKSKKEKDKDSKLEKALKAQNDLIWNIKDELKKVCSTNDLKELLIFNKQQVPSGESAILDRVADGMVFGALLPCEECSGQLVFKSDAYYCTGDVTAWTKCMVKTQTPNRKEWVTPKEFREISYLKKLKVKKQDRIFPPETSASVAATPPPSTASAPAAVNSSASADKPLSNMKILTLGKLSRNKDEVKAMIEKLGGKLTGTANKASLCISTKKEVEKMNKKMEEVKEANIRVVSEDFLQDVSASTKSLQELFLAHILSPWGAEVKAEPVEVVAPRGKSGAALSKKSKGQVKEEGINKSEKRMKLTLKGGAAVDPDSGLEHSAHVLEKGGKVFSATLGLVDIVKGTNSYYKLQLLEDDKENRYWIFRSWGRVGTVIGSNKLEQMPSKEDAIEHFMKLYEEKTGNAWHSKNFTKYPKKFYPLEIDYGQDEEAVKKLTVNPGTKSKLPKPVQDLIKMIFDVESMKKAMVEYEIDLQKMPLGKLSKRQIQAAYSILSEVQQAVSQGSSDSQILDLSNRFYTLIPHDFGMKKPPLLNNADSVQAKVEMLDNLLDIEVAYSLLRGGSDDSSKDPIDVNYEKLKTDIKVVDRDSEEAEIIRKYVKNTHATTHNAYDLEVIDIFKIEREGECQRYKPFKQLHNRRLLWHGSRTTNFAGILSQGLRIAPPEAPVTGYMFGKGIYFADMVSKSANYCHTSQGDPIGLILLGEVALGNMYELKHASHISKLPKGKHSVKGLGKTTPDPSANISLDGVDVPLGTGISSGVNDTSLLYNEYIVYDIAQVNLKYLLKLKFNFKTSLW

[5] = tested on: Herpes Simplex Virus (HSV); settings: cited from earlier work

tankyrase 2 protein PARP domain, TNKS2P (GST-tagged), sequence (Q9H2K2 959-1164): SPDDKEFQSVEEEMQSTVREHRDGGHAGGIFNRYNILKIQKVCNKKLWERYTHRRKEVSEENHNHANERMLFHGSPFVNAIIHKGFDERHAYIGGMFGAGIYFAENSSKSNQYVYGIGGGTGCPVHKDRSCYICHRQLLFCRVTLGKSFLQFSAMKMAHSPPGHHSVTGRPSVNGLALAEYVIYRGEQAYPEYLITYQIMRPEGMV

| SMILES | IC50 [1] [nM] | IC50 [2] [nM] | IC50 (PARP2) [nM] | IC50 [3] [nM] | AC50 (Axin2 protein) [nM] | IC50 [4] [nM] | IC50 (Human PARP1) [nM] | HSV viral growth [5] | HSV viral protein expression [5] |
| --- | --- | --- | --- | --- | --- | --- | --- | --- | --- |
| O=C(c1ccc(F)cc1)C1CCN([C@H]2CCN(Cc3nc4c(c(=O)[nH]3)COCC4)C2=O)CC1 [Example 11, 2-{(S)-3-[4-(4-Fluoro-benzoyl)-piperidin-1-yl]-2-oxo-pyrrolidin-1-ylmethyl}-3,5,7,8-tetrahydro-pyrano[4,3-d]pyrimidin-4-one] | 17 ± 2 | 5 ± 5 | 10200 ± 4200 | 37 ± 5 | 132 ± 22 | 301 | 37400 ± 300 | – | – |
| COc1ccc(C(=O)C2CCN([C@H]3CCN(Cc4nc5c(c(=O)[nH]4)COCC5)C3=O)CC2)cc1C [Example 13, 2-{(S)-3-[4-(4-Methoxy-3-methyl-benzoyl)-piperidin-1-yl]-2-oxo-pyrrolidin-1-ylmethyl}-3,5,7,8-tetrahydro-pyrano[4,3-d]pyrimidin-4-one] | 3 ± 1 | 1.2 ± 1 | 4000 ± 1100 | 6 ± 1 | 2.1 ± 0.1 | 3 | 24000 ± 3000 | – | – |
| COc1ccc(C(=O)C2CCN(C3CCN(Cc4nc5c(c(=O)[nH]4)CCC5)C3=O)CC2)cc1 (stereo not drawn) [Example 21, 2-((3-(4-(4-methoxybenzoyl)piperidin-1-yl)-2-oxopyrrolidin-1-yl)methyl)-6,7-dihydro-3H-cyclopenta[d]pyrimidin-4(5H)-one] | 17 ± 2 | 1.1 ± 0.17 | 10700 ± 200 | 34 ± 1 | 7 ± 2 | 18 | 29600 ± 2800 | – | – |
| CCc1cc(=O)[nH]c(CN2CCC(N3CCC(C(=O)c4ccc(OC)cc4)CC3)C2=O)n1 (stereo not drawn) [Example 24, 6-Ethyl-2-{3-[4-(4-methoxy-benzoyl)-piperidin-1-yl]-2-oxo-pyrrolidin-1-ylmethyl}-3H-pyrimidin-4-one] | 53 ± 5 | 10.4 ± 2.3 | > 19000 | 115 ± 4 | 104 ± 15 | 183 | > 19000 | – | – |
| COc1ccc(C(=O)C2CCN(C3CCN(Cc4ncc(C)c(=O)[nH]4)C3=O)CC2)cc1 (stereo not drawn) [Example 25, 2-{3-[4-(4-Methoxy-benzoyl)-piperidin-1-yl]-2-oxo-pyrrolidin-1-ylmethyl}-5-methyl-3H-pyrimidin-4-one] | 36 ± 6 | 3.4 ± 1.5 | > 19000 | 72 ± 2 | 46 ± 3 | 117 | > 19000 | – | – |
| COc1ccc(C(=O)C2CCN(C3CCN(Cc4nc(C)c(C)c(=O)[nH]4)C3=O)CC2)cc1 (stereo not drawn) [Example 26, 2-{3-[4-(4-Methoxy-benzoyl)-piperidin-1-yl]-2-oxo-pyrrolidin-1-ylmethyl}-5,6-dimethyl-3H-pyrimidin-4-one] | 26 ± 1 | 4.1 ± 2.1 | > 19000 | 47 ± 2 | 21 ± 3 | 43 | > 19000 | – | – |
| COc1ccc(C(=O)C2CCN([C@H]3CCN(Cc4nc5ccccc(=O)c5[nH]4)C3=O)CC2)cc1C [Example 28, 2-{(S)-3-[4-(4-Methoxy-3-methyl-benzoyl)-piperidin-1-yl]-2-oxo-pyrrolidin-1-ylmethyl}-3H-cycloheptaimidazol-4-one] | 7 ± 1 | 1.5 ± 0.5 | 2900 ± 300 | 19.5 ± 3.5 | 0.46 ± 0.2 | 0.8 ± 0.9 | 20200 ± 1500 | – | – |
| Oc1nc(-c2ccc(C(F)(F)F)cc2)nc2c1CSCC2 [XAV939] | – | – | – | – | – | – | – | decreased viral growth | suppressed HSV viral protein expression |

Reference: US9163003B2, “4-piperidinyl compounds for use as tankyrase inhibitors” (NOVARTIS AG, priority 2011, dated 2015)
